{"source": "patent US20050059626A1", "about": "“Methods of preventing and treating viral infections using immunomodulatory polynucleotide sequences” (priority 2000, published 2005)", "key": {"HSV-2 strain 186": {"system": "HSV-2 strain 186", "test": "Vaginal HSV-2 lethal challenge in mice", "assay_type": "in vivo, Swiss Webster mice", "from_the_text": "Outbred Swiss Webster mice, vaginally infected with HSV-2 strain 186, were used as a model of HSV infection. In these animals, the first indication of viral infection is hair loss and erythema (HLE) near the vagina occurring, on average, 5 days after inoculation. The next stage of infection is indicated by chronic wetness (CW) due to loss of bladder control, on average, 6 days after inoculation. A portion (about 50% of infected mice) of the animals develop hind limb paralysis (HLP) at approximately the same time point. Death, which is often preceded by evidence of CNS disease, occurs an average of 7-9 days after viral inoculation.\nMice were prepared for infection by an initial two-dose treatment with depopriven to synchronize cycles and to thin the vaginal epithelium. Vaginal mucous was removed by swabbing with calcium alginate, then a lethal challenge dose (determined by titration) of HSV-2 strain 186 was delivered by positive-displacement pipettor. Inoculated mice were randomly grouped into one of 4 treatment groups (n=15/group). Animals in group 1 received no treatment and served as a control for the study. Animals in the second and third groups were treated topically with 100 μg of an ISS-containing phosphorothioate oligonucleotide (5′-[…]-3′) (SEQ ID NO:1) suspended in phosphate-buffered saline (PBS). The groups were treated 2 or 6 hours after inoculation. As a vehicle control, group four was treated with PBS alone.\nIn another experiment, inoculated mice were randomly grouped into 8 treatment groups (n=16/group). Animals in the groups received treatments as outlined in Table 11 below. The groups were treated 2 hours after virus inoculation."}, "CRPV-E8m": {"system": "CRPV-E8m", "test": "Rabbit papilloma model (CRPV-E8m), papilloma geometric mean diameter"}, "RSV A2": {"system": "RSV A2", "test": "RSV lung titer in cotton rats after local (intranasal) administration", "assay_type": "in vivo, cotton rat (Sigmoden hispidis)", "details": "for RSV titer (log10/g lung) Mean / RSV titer (log10/g lung) in CR No. 1 / RSV titer (log10/g lung) in CR No. 2 / RSV titer (log10/g lung) in CR No. 3 / RSV titer (log10/g lung) in CR No. 4: non-ISS = SEQ ID NO:9", "description": "Cotton rats, 50-100 g and 4-12 weeks old (Sigmoden hispidis) of either sex were used in these studies. All of the animals were descendants of two pair of cotton rats obtained in 1984 from the Small Animal Section of the Veterinary Research Branch, Division of Research Services, National Institutes of Health.\nRSV strain A2 was purchased from the ATCC (ATCC VR26). Working stocks of this virus were prepared as described in detail by Wyde et al. (1995) Pediatr. Res. 38:543-550. ISS sequence tested for RSV experiments was 5′-[…]-3′ (SEQ ID NO:1) (phosphorothioate). Control, non-ISS sequences used were 5′-[…]-3′ (SEQ ID NO:9) (phosphorothioate) and 5′-[…]-3′ (SEQ ID NO:10) (phosphorothioate), as well as PBS.\nRSV levels in virus pools and lung lavage fluids (L.F.) were determined using sterile 96-well, flat bottom tissue culture plates (Falcon 3072), serial 3-fold dilutions and 2% FCS-MEM as described in detail previously (Wyde et al., 1995). […] The amount of virus in virus pools was expressed as a median tissue culture infectious doses (TCID50/ml, log10). Titers of virus in L.F. were expressed as TCID50/g lung tissue (log10). The minimum detectable virus concentration in these assays was 1.3 log10 TCID50/ml (virus pools) or 1.6 log10 TCID50/g lung.\nOn day −3 (i.e., 3 days before infection with virus), 20 cotton rats (CRs) were selected and divided into five groups of four animals. The animals in Group 1 were lightly anesthetized and 50 μL of phosphate buffered saline (PBS) was administered intranasally (IN). The CRs in Group 2 were similarly administered 150 μg of ISS (5′-[…]-3′) (SEQ ID NO:1), while the animals in Group 3 were similarly administered 150 μg of control non-ISS sequence 5′-[…]-3′ (SEQ ID NO:9). Three days later, on Day 0, each of CRs in Group 4 were anesthetized and 150 μg of ISS was administered IN, and the animals in Group 5 were administered, in a like manner, 150 μg of control non-ISS sequence 5′-[…]-3′ (SEQ ID NO:9).\nThirty minutes later, all of the CRs were inoculated IN with 100 median tissue culture infectious doses (TCID50) of RSV A2. Four days later (Day 4), all of the animals were sacrificed and the lungs of each animal were removed, lavaged, and assessed for RSV levels."}, "[1]": {"details": "100 μg topical 2 h post-inoculation (PI)"}, "[2]": {"details": "100 μg topical 6 h post-inoculation (PI)"}, "[3]": {"details": "150 μg IN Day 0 (30 min before RSV), lungs Day 4"}, "[4]": {"details": "150 μg IN Day −3, RSV Day 0, lungs Day 4"}}, "data": [{"substance": "5′-TGACTGTGAACGTTCGAGATGA-3′ [SEQ ID NO: 1]", "values": [{"measurement": "Overall effect on HSV2 disease (incidence, survival, time to symptoms and death)", "setting": "HSV-2 strain 186; 100 μg topical 2 or 6 hours after inoculation", "result": "decreased incidence (i.e., individuals showing symptoms of HSV2 infection), improved survival and delays in both appearance of symptoms and time to death"}, {"measurement": "Incidence (%)", "setting": "HSV-2 strain 186; [1]", "result": 60, "unit": "%"}, {"measurement": "Incidence (animals with symptoms/total)", "setting": "HSV-2 strain 186; [1]", "result": "9/15"}, {"measurement": "Survival (%)", "setting": "HSV-2 strain 186; [1]", "result": 40, "unit": "%"}, {"measurement": "Survival (survivors/total)", "setting": "HSV-2 strain 186; [1]", "result": "6/15"}, {"measurement": "Time to Death", "setting": "HSV-2 strain 186; [1]", "result": 12, "unit": "days"}, {"measurement": "Time to Symptoms", "setting": "HSV-2 strain 186; [1]", "result": 6.6, "unit": "days"}, {"measurement": "Incidence (%)", "setting": "HSV-2 strain 186; [2]", "result": 80, "unit": "%"}, {"measurement": "Survival (%)", "setting": "HSV-2 strain 186; [2]", "result": 27, "unit": "%"}, {"measurement": "Survival (survivors/total)", "setting": "HSV-2 strain 186; [2]", "result": "4/15"}, {"measurement": "Time to Death", "setting": "HSV-2 strain 186; [2]", "result": 10.6, "unit": "days"}, {"measurement": "Time to Symptoms", "setting": "HSV-2 strain 186; [2]", "result": 5.75, "unit": "days"}, {"measurement": "Change in average time to death", "setting": "HSV-2 strain 186; animals that died, treated two hours after infection", "result": "increased by an average of over two days"}, {"measurement": "Size of papillomas (GMD), treated versus untreated", "setting": "CRPV-E8m; Treatment Group C: 500 μg/injection, 1 time/week days 47-86, intradermal", "result": "reduction in the size of the ISS treated papillomas compared to untreated papillomas"}, {"measurement": "Papilloma growth rates, treated versus untreated papillomas", "setting": "CRPV-E8m; Treatment Groups A, B, D (100 μg 3x/week; 100 μg 1x/week; 2000 μg weeks 7 and 10), intradermal", "result": "Minimal differences"}, {"measurement": "RSV titer (log10/g lung) Mean", "setting": "RSV A2; [3]", "result": 3.9, "unit": "log10/g lung"}, {"measurement": "RSV titer (log10/g lung) in CR No. 1", "setting": "RSV A2; [3]", "result": 4, "unit": "log10/g lung"}, {"measurement": "RSV titer (log10/g lung) in CR No. 2", "setting": "RSV A2; [3]", "result": 4, "unit": "log10/g lung"}, {"measurement": "RSV titer (log10/g lung) in CR No. 3", "setting": "RSV A2; [3]", "result": 4.5, "unit": "log10/g lung"}, {"measurement": "RSV titer (log10/g lung) in CR No. 4", "setting": "RSV A2; [3]", "result": 3, "unit": "log10/g lung"}, {"measurement": "RSV titer (log10/g lung) Mean", "setting": "RSV A2; [4]", "result": 2.8, "unit": "log10/g lung"}, {"measurement": "RSV titer (log10/g lung) in CR No. 1", "setting": "RSV A2; [4]", "result": 3, "unit": "log10/g lung"}, {"measurement": "RSV titer (log10/g lung) in CR No. 2", "setting": "RSV A2; [4]", "result": 3, "unit": "log10/g lung"}, {"measurement": "RSV titer (log10/g lung) in CR No. 3", "setting": "RSV A2; [4]", "result": 2.5, "unit": "log10/g lung"}, {"measurement": "RSV titer (log10/g lung) in CR No. 4", "setting": "RSV A2; [4]", "result": 2.5, "unit": "log10/g lung"}, {"measurement": "Effect on RSV viral titer in infected tissue", "setting": "RSV A2; IN administration 3 days before infection", "result": "effective at reducing viral titers"}, {"measurement": "Effect on RSV viral titer in infected tissue", "setting": "RSV A2; first IN administration on the day of infection", "result": "not effective"}]}]}
